Reference: PMC8496750, “Identification of the organic anion transporting polypeptides responsible for the hepatic uptake of the major metabolite of epyrifenacil, S‐3100‐CA, in mice” (Pharmacology Research & Perspectives, 2021)

Target: T1, mouse Oatp1a4 (Mus musculus, UniProt Q9EP96)
T1 sequence (Q9EP96 1-670): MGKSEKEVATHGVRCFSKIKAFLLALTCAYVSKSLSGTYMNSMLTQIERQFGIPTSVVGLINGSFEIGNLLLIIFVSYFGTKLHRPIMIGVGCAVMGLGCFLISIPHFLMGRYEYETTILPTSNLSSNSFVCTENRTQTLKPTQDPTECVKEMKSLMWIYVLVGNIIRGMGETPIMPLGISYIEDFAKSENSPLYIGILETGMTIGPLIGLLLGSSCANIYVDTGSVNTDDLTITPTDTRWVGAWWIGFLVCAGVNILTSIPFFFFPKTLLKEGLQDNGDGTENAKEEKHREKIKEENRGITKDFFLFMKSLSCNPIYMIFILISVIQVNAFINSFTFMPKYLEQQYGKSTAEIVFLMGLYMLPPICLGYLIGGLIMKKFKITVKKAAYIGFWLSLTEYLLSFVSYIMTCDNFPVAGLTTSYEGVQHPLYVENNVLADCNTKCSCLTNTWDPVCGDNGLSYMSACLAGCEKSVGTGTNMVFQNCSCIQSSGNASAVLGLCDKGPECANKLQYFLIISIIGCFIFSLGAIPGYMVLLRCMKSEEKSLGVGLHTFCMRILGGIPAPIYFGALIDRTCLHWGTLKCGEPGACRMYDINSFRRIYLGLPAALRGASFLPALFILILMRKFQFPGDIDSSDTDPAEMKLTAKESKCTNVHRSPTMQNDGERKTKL
Assay: in vitro
Details: 293FT cells transiently transfected with mouse Oatp1a4, probe radiolabeled S‐3100‐CA
Procedure: 293FT cells were purchased from Thermo Fisher Scientific, Inc.. The cells were grown in Dulbecco's modified Eagle medium (supplemented with 4.5 g/L glucose and 2 mM L‐glutamine) at 37°C, 5% CO2, and 95% humidity. The cells were passaged 3 times per week by harvesting cells using trypsin and plating at a density of 1.0 × 10^4 cells/cm^2 in a 10 cm cell culture plate for maintenance culture. The 293FT cells were detached using trypsin and re‐seeded at a density of 2.5 × 10^4 cells/cm^2 in BioCoat™ Collagen I 6‐well plates (Corning Inc.) for transfection and then treated with 1.2 μg of plasmid vector and 3.2 μl of Lipofectamine™ 2000 Transfection Reagent (Thermo Fisher Scientific, Inc.) according to the manufacturer's instructions. After a 3‐h treatment, the transfection medium was replaced with a fresh cell culture medium and incubated at 37°C with 95% humidity and 5% CO2 until ready for the assay.
Transport experiments were conducted approximately 24 h post‐transfection. The experiments were initiated by aspirating culture medium and addition of pre‐warmed radiolabeled substrate solution (final 1.0% of acetonitrile or 0.9% of ethanol in phosphate‐buffered saline (PBS[−])) to each well. After a 10‐min incubation, cells were washed twice with 1 ml of ice‐cold PBS(−) and lysed with 700 μl of 1.0 M NaOH for 3 h or more at room temperature. The lysate was transferred to a 1.5‐ml tube, and neutralized with 350 μl of 2.0 M HCl and 350 μl of 2.0% sodium dodecyl sulfate (SDS) solution. From the lysate, 1.0 ml was transferred to a vial containing 10 ml of Emulsifier Scintillator Plus to measure the radioactivity in the LSC. The protein concentration of the cell lysate was also measured using a Pierce™ BCA Protein Assay Kit (Thermo Fisher Scientific, Inc.), which was used to normalize, according to the cell number, the radioactivity in the cell lysate extract. The protein assay was performed in duplicate. Each sample type was assayed in triplicate wells, and each run was performed twice. […] Each sample type was assayed in triplicate wells.

For CO[C@H]1/C=C/O[C@@]2(C)Oc3c(C)c(O)c4c(O)c(c(/C=N/N5CCN(C)CC5)c(O)c4c3C2=O)NC(=O)/C(C)=C\C=C\[C@H](C)[C@H](O)[C@@H](C)[C@@H](O)[C@@H](C)[C@H](OC(C)=O)[C@@H]1C [RIF, Rifampicin], the inhibition at 10 min, 10 µM was > 50%.
